Measured values taken from patent publication US12702691B2, “Extract of an herbal composition as antimicrobial and/or antibiofilm agent” (ALPHANOSOS S.A.S., priority 2016, dated 2026).

What was measured:
[1] = test system: B-A21; experiment: Planktonic growth with extract and antibiotic relative to growth without both (Example 14); assay type: cell-based
Method: (§1) Starting from the herbal composition, the corresponding water extracts (or processed samples) was prepared according to the previously described Method B using 2.06 g of the above herbal composition with 40 mL water with 100 g/L sucrose for water extraction and including the decantation step before filtration. In an independent water extract preparation without sucrose, it has been measured that 2.06 g/40 mL of herbal composition corresponds to 14.5 g/L as deduced from the weight of the lyophilized dry herbal extract.
(§2) In Example 14 we calculate the growth of the bacteria in presence of antibiotic and/or herbal mix relative to the growth in the absence of both antibiotic and herbal mix extract.

[2] = test system: B-A17; experiment: as above; assay type: cell-based
Method: as §1, §2

[3] = M[20C]-576 0 μg/mL, antibiotic 3.91 μg/mL
[4] = M[20C]-576 0 μg/mL, antibiotic 7.81 μg/mL
[5] = M[20C]-576 0 μg/mL, antibiotic 15.63 μg/mL
[6] = M[20C]-576 0 μg/mL, antibiotic 31.25 μg/mL
[7] = M[20C]-576 0 μg/mL, antibiotic 62.50 μg/mL
[8] = M[20C]-576 0 μg/mL, antibiotic 125 μg/mL
[9] = M[20C]-576 0 μg/mL, antibiotic 250 μg/mL
[10] = M[20C]-576 0 μg/mL, antibiotic 500 μg/mL
[11] = M[20C]-576 0 μg/mL, antibiotic 1000 μg/mL
[12] = M[20C]-576 0 μg/mL, antibiotic 2000 μg/mL
[13] = M[20C]-576 0 μg/mL, antibiotic 4000 μg/mL
[14] = M[20C]-576 90.6 μg/mL, antibiotic 3.91 μg/mL
[15] = M[20C]-576 90.6 μg/mL, antibiotic 7.81 μg/mL
[16] = M[20C]-576 90.6 μg/mL, antibiotic 15.63 μg/mL
[17] = M[20C]-576 90.6 μg/mL, antibiotic 31.25 μg/mL
[18] = M[20C]-576 90.6 μg/mL, antibiotic 62.50 μg/mL
[19] = M[20C]-576 90.6 μg/mL, antibiotic 125 μg/mL
[20] = M[20C]-576 90.6 μg/mL, antibiotic 250 μg/mL
[21] = M[20C]-576 90.6 μg/mL, antibiotic 500 μg/mL
[22] = M[20C]-576 90.6 μg/mL, antibiotic 1000 μg/mL
[23] = M[20C]-576 90.6 μg/mL, antibiotic 2000 μg/mL
[24] = M[20C]-576 90.6 μg/mL, antibiotic 4000 μg/mL
[25] = M[20C]-576 181.3 μg/mL, antibiotic 3.91 μg/mL
[26] = M[20C]-576 181.3 μg/mL, antibiotic 7.81 μg/mL
[27] = M[20C]-576 181.3 μg/mL, antibiotic 15.63 μg/mL
[28] = M[20C]-576 181.3 μg/mL, antibiotic 31.25 μg/mL
[29] = M[20C]-576 181.3 μg/mL, antibiotic 62.50 μg/mL
[30] = M[20C]-576 181.3 μg/mL, antibiotic 125 μg/mL
[31] = M[20C]-576 181.3 μg/mL, antibiotic 250 μg/mL
[32] = M[20C]-576 181.3 μg/mL, antibiotic 500 μg/mL
[33] = M[20C]-576 181.3 μg/mL, antibiotic 1000 μg/mL
[34] = M[20C]-576 181.3 μg/mL, antibiotic 2000 μg/mL
[35] = M[20C]-576 181.3 μg/mL, antibiotic 4000 μg/mL

SMILES: CC1(C)S[C@@H]2[C@H](NC(=O)[C@H](N)c3ccccc3)C(=O)N2[C@H]1C(=O)O [Ampicillin]
- planktonic growth relative to the growth in the absence of both extract and antibiotic [1, 3]: 153%
- planktonic growth relative to the growth in the absence of both extract and antibiotic [1, 4]: 132%
- planktonic growth relative to the growth in the absence of both extract and antibiotic [1, 5]: 131%
- planktonic growth relative to the growth in the absence of both extract and antibiotic [1, 6]: 132%
- planktonic growth relative to the growth in the absence of both extract and antibiotic [1, 7]: 116%
- planktonic growth relative to the growth in the absence of both extract and antibiotic [1, 8]: 150%
- planktonic growth relative to the growth in the absence of both extract and antibiotic [1, 9]: 113%
- planktonic growth relative to the growth in the absence of both extract and antibiotic [1, 10]: 112%
- planktonic growth relative to the growth in the absence of both extract and antibiotic [1, 11]: 106%
- planktonic growth relative to the growth in the absence of both extract and antibiotic [1, 12]: −1%
- planktonic growth relative to the growth in the absence of both extract and antibiotic [1, 13]: 0%
- planktonic growth relative to the growth in the absence of both extract and antibiotic [1, 14]: 108%
- planktonic growth relative to the growth in the absence of both extract and antibiotic [1, 15]: 83%
- planktonic growth relative to the growth in the absence of both extract and antibiotic [1, 16]: 82%
- planktonic growth relative to the growth in the absence of both extract and antibiotic [1, 17]: 82%
- planktonic growth relative to the growth in the absence of both extract and antibiotic [1, 18]: 74%
- planktonic growth relative to the growth in the absence of both extract and antibiotic [1, 19]: 83%
- planktonic growth relative to the growth in the absence of both extract and antibiotic [1, 20]: 75%
- planktonic growth relative to the growth in the absence of both extract and antibiotic [1, 21]: 83%
- planktonic growth relative to the growth in the absence of both extract and antibiotic [1, 22]: 0%
- planktonic growth relative to the growth in the absence of both extract and antibiotic [1, 23]: 0%
- planktonic growth relative to the growth in the absence of both extract and antibiotic [1, 24]: 0%
- planktonic growth relative to the growth in the absence of both extract and antibiotic [1, 25]: 44%
- planktonic growth relative to the growth in the absence of both extract and antibiotic [1, 26]: 63%
- planktonic growth relative to the growth in the absence of both extract and antibiotic [1, 27]: 70%
- planktonic growth relative to the growth in the absence of both extract and antibiotic [1, 28]: 69%
- planktonic growth relative to the growth in the absence of both extract and antibiotic [1, 29]: 70%
- planktonic growth relative to the growth in the absence of both extract and antibiotic [1, 30]: 62%
- planktonic growth relative to the growth in the absence of both extract and antibiotic [1, 31]: 62%
- planktonic growth relative to the growth in the absence of both extract and antibiotic [1, 32]: 61%
- planktonic growth relative to the growth in the absence of both extract and antibiotic [1, 33]: −2%
- planktonic growth relative to the growth in the absence of both extract and antibiotic [1, 34]: −3%
- planktonic growth relative to the growth in the absence of both extract and antibiotic [1, 35]: −2%
- planktonic growth relative to the growth in the absence of both extract and antibiotic [2, 3]: 176%
- planktonic growth relative to the growth in the absence of both extract and antibiotic [2, 4]: 176%
- planktonic growth relative to the growth in the absence of both extract and antibiotic [2, 5]: 148%
- planktonic growth relative to the growth in the absence of both extract and antibiotic [2, 6]: 131%
- planktonic growth relative to the growth in the absence of both extract and antibiotic [2, 7]: 112%
- planktonic growth relative to the growth in the absence of both extract and antibiotic [2, 8]: 2%
- planktonic growth relative to the growth in the absence of both extract and antibiotic [2, 9]: 0%
- planktonic growth relative to the growth in the absence of both extract and antibiotic [2, 10]: 0%
- planktonic growth relative to the growth in the absence of both extract and antibiotic [2, 11]: 0%
- planktonic growth relative to the growth in the absence of both extract and antibiotic [2, 12]: 0%
- planktonic growth relative to the growth in the absence of both extract and antibiotic [2, 13]: −1%
- planktonic growth relative to the growth in the absence of both extract and antibiotic [2, 14]: 64%
- planktonic growth relative to the growth in the absence of both extract and antibiotic [2, 15]: 76%
- planktonic growth relative to the growth in the absence of both extract and antibiotic [2, 16]: 75%
- planktonic growth relative to the growth in the absence of both extract and antibiotic [2, 17]: 58%
- planktonic growth relative to the growth in the absence of both extract and antibiotic [2, 18]: 18%
- planktonic growth relative to the growth in the absence of both extract and antibiotic [2, 19]: 1%
- planktonic growth relative to the growth in the absence of both extract and antibiotic [2, 20]: 0%
- planktonic growth relative to the growth in the absence of both extract and antibiotic [2, 21]: 0%
- planktonic growth relative to the growth in the absence of both extract and antibiotic [2, 22]: 0%
- planktonic growth relative to the growth in the absence of both extract and antibiotic [2, 23]: 0%
- planktonic growth relative to the growth in the absence of both extract and antibiotic [2, 24]: 0%
- planktonic growth relative to the growth in the absence of both extract and antibiotic [2, 25]: 52%
- planktonic growth relative to the growth in the absence of both extract and antibiotic [2, 26]: 53%
- planktonic growth relative to the growth in the absence of both extract and antibiotic [2, 27]: 52%
- planktonic growth relative to the growth in the absence of both extract and antibiotic [2, 28]: 31%
- planktonic growth relative to the growth in the absence of both extract and antibiotic [2, 29]: 7%
- planktonic growth relative to the growth in the absence of both extract and antibiotic [2, 30]: −4%
- planktonic growth relative to the growth in the absence of both extract and antibiotic [2, 31]: −4%
- planktonic growth relative to the growth in the absence of both extract and antibiotic [2, 32]: −4%
- planktonic growth relative to the growth in the absence of both extract and antibiotic [2, 33]: −4%
- planktonic growth relative to the growth in the absence of both extract and antibiotic [2, 34]: −5%
- planktonic growth relative to the growth in the absence of both extract and antibiotic [2, 35]: −1%
